Measured values taken from patent US20230339915A1 (Vertex Pharmaceuticals Incorporated, priority 2020, published 2023).

Key:
[1] = target: NL20 human bronchial epithelial cells expressing human Z-AAT (Homo sapiens (Human), UniProt P01009, E366K); assay: AAT Function Assay (MSD Assay NL20-SI Cell Line); assay type: cell-based; settings: functionally active AAT (AAT-hNE complex, MSD) in supernatant of NL20 cells expressing human Z-AAT; read-out: NL20 Functional EC50
Procedure, shortened: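 NL20 bronchial epithelial cells expressing Z-AAT, induced with 0.1 μM doxycycline, were treated with compound overnight. Functional AAT in supernatant was measured by complex formation with excess human neutrophil elastase, captured on anti-AAT plates, detected with Sulfo-tagged anti-elastase on MSD, and quantified against M-AAT standards (0.156–320 ng/mL).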

[2] = target: purified Z-AAT protein from human plasma (Homo sapiens (Human), UniProt P01009, E366K); assay: Biochemical Assay (Z-AAT Elastase Activity Assay); settings: purified Z-AAT pre-incubated with compound 1 hour, then human neutrophil elastase and fluorescent substrate
Procedure, shortened: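 Purified plasma Z-AAT (20 nM) preincubated with compounds 1 h at room temperature, then 3 nM human neutrophil elastase added in PBS + 0.01% BRIJ35 for 30 min to form suicide complex. Residual elastase activity read immediately by fluorescence after adding 300 μM MeOSuc-AAPV-AMC substrate solution.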

NL20 human bronchial epithelial cells expressing human Z-AAT, sequence (P01009 25-418 E366K limits assumed): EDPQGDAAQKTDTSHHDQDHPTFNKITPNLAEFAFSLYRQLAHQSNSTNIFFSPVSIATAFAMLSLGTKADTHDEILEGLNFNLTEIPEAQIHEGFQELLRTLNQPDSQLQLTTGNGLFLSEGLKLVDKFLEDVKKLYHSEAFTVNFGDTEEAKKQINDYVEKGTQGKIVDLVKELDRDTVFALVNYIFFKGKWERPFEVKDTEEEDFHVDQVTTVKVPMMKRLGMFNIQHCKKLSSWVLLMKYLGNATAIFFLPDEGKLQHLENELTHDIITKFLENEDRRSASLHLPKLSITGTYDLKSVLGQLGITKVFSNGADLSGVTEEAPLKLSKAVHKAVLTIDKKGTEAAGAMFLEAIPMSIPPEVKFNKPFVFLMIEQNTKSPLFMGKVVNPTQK
purified Z-AAT protein from human plasma, sequence (P01009 25-418 E366K limits assumed): as above

Structure (SMILES)	EC50 [1] [nM]	IC50 [2] [nM]
Cc1cc(-n2c(C(C)C)c(C3CC4(CC(C(=O)O)C4)C3)c3cc(O)ccc32)ccc1F (centres unmarked) [Compound 97]	< 500	2000 to 5000
O=C(O)[C@]1(CF)C[C@H](c2c(C3CCOCC3)n(-c3ccc(F)c(Cl)c3)c3ccc(O)cc32)C1 [Compound 111]	> 2000	> 30000
O=C(O)[C@H]1C[C@H](c2c(C3CCOCC3)n(-c3cc(F)cc(F)c3)c3ccc(O)cc32)C1 [Compound 112]	> 2000	> 30000
O=C(O)[C@H]1C[C@@H](c2c(C3CCOCC3)n(-c3cc(F)cc(F)c3)c3ccc(O)cc32)C1 [Compound 113]	> 2000	> 30000
O=C(O)[C@H]1C[C@@H](c2c(C3CCOCC3)n(-c3ccc(F)c(F)c3)c3ccc(O)cc32)C1 [Compound 117]	> 2000	> 30000
O=C(O)[C@]1(CF)C[C@@H](c2c(C3CCOCC3)n(-c3ccc(F)cc3)c3ccc(O)cc32)C1 [Compound 118]	> 2000	> 30000
COC[C@]1(C(=O)O)C[C@@H](c2c(C3CCOCC3)n(-c3ccc(F)c(C)c3)c3ccc(O)cc32)C1 [Compound 121]	> 2000	> 30000
Cc1cc(-n2c(C(C)C)c(CCC(=O)O)c3cc(O)ccc32)ccc1F [Compound 122]	500 to 2000	> 30000
Cc1cc(-n2c(C3CCOCC3)c([C@H]3C[C@](C(=O)O)(C(F)F)C3)c3cc(O)ccc32)ccc1F [Compound 123, cis-1-(difluoromethyl)-3-(1-(4-fluoro-3-methylphenyl)-5-hydroxy-2-(tetrahydro-2H-pyran-4-yl)-1H-indol-3-yl)cyclobutane-1-carboxylic acid]	> 2000	> 30000
CC(C)c1c([C@H]2C[C@@H]2C(=O)O)c2cc(O)c(F)cc2n1-c1ccc(F)cc1 [Compound 125]	500 to 2000	> 30000
Cc1cc(-n2c([C@H]3CCCO3)c([C@H]3C[C@@H]3C(=O)O)c3cc(O)ccc32)ccc1F [Compound 126]	> 2000	> 30000
Cc1cc(-n2c(C(C)C)c([C@H]3C[C@@H]3C(=O)O)c3cc(O)ccc32)ccc1F [Compound 134]	500 to 2000	> 5000
Cc1cc(-n2c(C(C)C)c([C@@H]3C[C@H]3C(=O)O)c3cc(O)ccc32)ccc1F [Compound 135]	> 2000	> 30000
O=C(O)[C@H]1CC[C@H](c2c(C3CCOCC3)n(-c3ccc(F)c(F)c3)c3ccc(O)cc32)CC1 [Compound 137]	> 2000	> 30000
O=C(O)[C@H]1CC[C@@H](c2c(C3CCOCC3)n(-c3ccc(F)c(F)c3)c3ccc(O)cc32)CC1 [Compound 138]	> 2000	> 30000
Cc1cc(-n2c(C(F)(F)F)c([C@H]3C[C@](C)(C(=O)O)C3)c3cc(O)ccc32)ccc1F [Compound 139, trans-3-(1-(4-fluoro-3-methylphenyl)-5-hydroxy-2-(trifluoromethyl)-1H-indol-3-yl)-1-methylcyclobutane-1-carboxylic acid]	500 to 2000	> 5000
Cc1cc(-n2c(C(F)(F)F)c(C3CC4(CC(C(=O)O)C4)C3)c3cc(O)ccc32)ccc1F (centres unmarked) [Compound 140, 6-(1-(4-fluoro-3-methylphenyl)-5-hydroxy-2-(trifluoromethyl)-1H-indol-3-yl)spiro[3.3]heptane-2-carboxylic acid]	500 to 2000	> 5000
CC(C)c1c([C@H]2C[C@H](C(=O)O)C2)c2cc(O)ccc2n1-c1ccc(F)c(F)c1 [Compound 141, trans-3-(1-(3,4-difluorophenyl)-5-hydroxy-2-isopropyl-1H-indol-3-yl)cyclobutane-1-carboxylic acid]	500 to 2000	> 5000
Cc1cc(-n2c(C3CCOCC3)c([C@H]3C[C@@H](C(=O)O)C3)c3cc(O)ccc32)ccn1 [Compound 143]	> 2000	> 30000
Cc1cc(-n2c(C(C)C)c([C@H]3C[C@@H](C(=O)O)C3)c3cc(O)ccc32)ccc1F [Compound 146]	500 to 2000	> 30000
Cc1cc(-n2c(C(C)C)c(C3CC4(C3)CC(F)(C(=O)O)C4)c3cc(O)ccc32)ccc1F (centres unmarked) [Compound 148, 2-fluoro-6-(1-(4-fluoro-3-methylphenyl)-5-hydroxy-2-isopropyl-1H-indol-3-yl)spiro[3.3]heptane-2-carboxylic acid]	< 500	< 2000
COC(C)(Cc1c(C(C)C)n(-c2ccc(F)c(C)c2)c2ccc(O)cc12)C(=O)O (centres unmarked) [Compound 151, 3-(1-(4-fluoro-3-methylphenyl)-5-hydroxy-2-isopropyl-1H-indol-3-yl)-2-methoxy-2-methylpropanoic acid]	> 2000	> 30000
Cc1cc(-n2c(C(C)C)c(CC(C)(O)C(=O)O)c3cc(O)ccc32)ccc1F (centres unmarked) [Compound 152, 3-[1-(4-fluoro-3-methyl-phenyl)-5-hydroxy-2-isopropyl-indol-3-yl]-2-hydroxy-2-methyl-propanoic acid]	> 2000	> 30000

Continued, values first:

EC50 [1] [nM]	IC50 [2] [nM]	Structure (SMILES)
> 2000	> 30000	Cc1cc(-n2c(C(C)C)c([C@H]3C[C@@H](C(=O)O)C3)c3cc(O)ccc32)ccc1F [Compound 98]
500 to 2000	> 5000	Cc1cc(-n2c(C3CCOCC3)c([C@H]3C[C@](C)(C(=O)O)C3)c3cc(O)ccc32)ccc1F [Compound 99]
> 2000	> 30000	Cc1cc(-n2c(C3CCOCC3)c([C@H]3C[C@@](C)(C(=O)O)C3)c3cc(O)ccc32)ccc1F [Compound 100]
> 2000	> 30000	Cc1cc(-n2c(C3CCOCC3)c(CC3(C(=O)O)CC3)c3cc(O)ccc32)ccc1F [Compound 103]
500 to 2000	> 5000	Cc1cc(-n2c(C(C)C)c(CC3(C(=O)O)CC3)c3cc(O)ccc32)ccc1F [Compound 104]
> 2000	> 30000	COC[C@]1(C(=O)O)C[C@H](c2c(C3CCOCC3)n(-c3ccc(F)c(C)c3)c3ccc(O)cc32)C1 [Compound 106, trans-3-(1-(4-fluoro-3-methylphenyl)-5-hydroxy-2-(tetrahydro-2H-pyran-4-yl)-1H-indol-3-yl)-1-(methoxymethyl)cyclobutane-1-carboxylic acid]
> 2000	> 30000	COC[C@]1(C(=O)O)C[C@@H](c2c(C3CCOCC3)n(-c3ccc(F)c(C)c3)c3ccc(O)cc32)C1 [Compound 107, cis-3-(1-(4-fluoro-3-methylphenyl)-5-hydroxy-2-(tetrahydro-2H-pyran-4-yl)-1H-indol-3-yl)-1-(methoxymethyl)cyclobutane-1-carboxylic acid]
500 to 2000	> 5000	Cc1cc(-n2c(C3CCOCC3)c([C@H]3C[C@](CF)(C(=O)O)C3)c3cc(O)ccc32)ccc1F [Compound 108]
> 2000	> 30000	Cc1cc(-n2c(C3CCOCC3)c([C@H]3C[C@@](CO)(C(=O)O)C3)c3cc(O)ccc32)ccc1F [Compound 109]
> 2000	> 30000	O=C(O)[C@]1(CF)C[C@@H](c2c(C3CCOCC3)n(-c3ccc(F)c(Cl)c3)c3ccc(O)cc32)C1 [Compound 110]
500 to 2000	> 30000	O=C(O)[C@H]1C[C@H](c2c(C3CCOCC3)n(-c3ccc(F)c(Cl)c3)c3ccc(O)cc32)C1 [Compound 114]
> 2000	> 30000	O=C(O)[C@H]1C[C@@H](c2c(C3CCOCC3)n(-c3ccc(F)c(Cl)c3)c3ccc(O)cc32)C1 [Compound 115]
> 2000	> 30000	O=C(O)[C@H]1C[C@H](c2c(C3CCOCC3)n(-c3ccc(F)c(F)c3)c3ccc(O)cc32)C1 [Compound 116]
> 2000	> 30000	O=C(O)[C@]1(CF)C[C@H](c2c(C3CCOCC3)n(-c3ccc(F)cc3)c3ccc(O)cc32)C1 [Compound 119]
> 2000	> 30000	CCc1c([C@H]2C[C@@H]2C(=O)O)c2cc(O)ccc2n1-c1ccc(F)c(C)c1 [Compound 127]
> 2000	> 30000	Cc1cc(-n2c(C(C)C)c([C@H]3C[C@H]3C(=O)O)c3cc(O)ccc32)ccc1F [Compound 128]
> 2000	> 30000	Cc1cc(-n2c(C3COC3)c([C@H]3C[C@@H]3C(=O)O)c3cc(O)ccc32)ccc1F [Compound 131]
> 2000	> 30000	Cc1cc(-n2c(C3CC3)c([C@H]3C[C@@H]3C(=O)O)c3cc(O)ccc32)ccc1F [Compound 132]
> 2000	> 30000	CC(C)c1c([C@H]2C[C@@H](C(=O)O)C2)c2cc(O)ccc2n1-c1ccc(F)c(F)c1 [Compound 142, cis-3-(1-(3,4-difluorophenyl)-5-hydroxy-2-isopropyl-1H-indol-3-yl)cyclobutane-1-carboxylic acid]
> 2000	> 30000	Cc1cc(-n2c(C(C)C)c([C@H]3C[C@@H](C(=O)O)C3)c3cc(O)ccc32)ccn1 [Compound 144]
500 to 2000	> 5000	Cc1cc(-n2c(C(C)C)c([C@H]3C[C@H](C(=O)O)C3)c3cc(O)ccc32)ccc1F [Compound 145]
> 2000	> 30000	Cc1cc(-n2c(C(C)C)c(C3CN(CC(=O)O)C3)c3cc(O)ccc32)ccc1F [Compound 147]
500 to 2000	2000 to 5000	Cc1cc(-n2c(C(C)C)c(C3CC4(C3)CC(F)(C(=O)O)C4)c3cc(O)ccc32)ccc1F (centres unmarked) [Compound 149, 2-fluoro-6-(1-(4-fluoro-3-methylphenyl)-5-hydroxy-2-isopropyl-1H-indol-3-yl)spiro[3.3]heptane-2-carboxylic acid]
